# Square brackets hold non-standard residues; d marks the D form. Peptide text beside a SMILES is read from it.
# How the values were obtained:
# [1] = system: CXCR4/CXCL12 induced p-MEK; assay: CXCR4/CXCL12 induced p-MEK in Jurkat cells (ELISA); assay type: cell-based, human; settings: 5 nM CXCL12, 5 min
# Procedure: The assay was performed following a protocol similar to that described by Peng, et al., Mol Cancer Ther., 14 480-90 (2015), incorporated herein by reference. […] Jurkat cells were resuspended in standard growth media (RPMI+GlutaMax media; Gibco/Thermo Fisher Scientific; Gaithersburg, Md.) containing 10% FBS and 1% penicillin/streptomycin. Assays were performed using fresh or conditioned media (media cultured overnight in presence of Jurkat cells) to resuspend cells at density of 2×10^6 cells/ml and […] of cell suspension was immediately placed in 1.7 ml microfuge tubes. […] Following the 5 min incubation, cells were centrifuged at 1000×g for 4 min at 4° C. The supernatant was removed and the cells were rinsed with 1 ml of HBSS containing calcium and magnesium. The HBSS was removed and the cells were immediately lysed in 150 l of lysis buffer included with Phospho-MEK1 (Ser217/221) Sandwich ELISA kit (Cell Signaling Technology; Danvers, Mass.); lysis buffer was supplemented with 1 m M PMSF (Millipore-Sigma; Saint Louis, Mo.) and Halt protease/phosphatase inhibitor cocktail (Thermo-Fisher; Waltham, Mass.) prior to use. The samples were then placed on ice for 10 min and vortexed periodically. Following the lysis step, the samples were centrifuged at 12,500 rpm for 10 min at 4° C. p-MEK expression in each of the samples was then measure using Phospho-MEK1 (Ser217/221) Sandwich ELISA kit according to manufacturer's instructions. Absorbance was measured using a Cytation 3 plate reader at […] (BioTek; Winooski, Vt.).
# [2] = biological target: human CXCR4 (Homo sapiens, UniProt P61073); assay: CXCR4/CXCL12 binding, HTRF format, single concentration (Example 23); design: host or cells: HEK293 (Tag-lite CXCR4 cells, frozen aliquots, transient expression); settings: 15 nM CXCR4R fluorescent probe, 3 hours, HEK293 Tag-lite CXCR4 cells
# human CXCR4, sequence (P61073 whole entry): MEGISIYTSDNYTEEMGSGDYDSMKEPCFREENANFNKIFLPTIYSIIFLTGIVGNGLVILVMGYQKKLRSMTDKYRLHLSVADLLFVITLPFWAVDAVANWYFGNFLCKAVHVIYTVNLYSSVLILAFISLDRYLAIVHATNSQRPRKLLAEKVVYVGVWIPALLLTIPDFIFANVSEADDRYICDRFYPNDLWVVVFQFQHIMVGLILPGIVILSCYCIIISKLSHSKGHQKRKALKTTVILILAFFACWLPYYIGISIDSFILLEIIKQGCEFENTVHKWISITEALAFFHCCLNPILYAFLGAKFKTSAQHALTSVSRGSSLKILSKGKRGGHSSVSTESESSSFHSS
# Procedure: Peptides were initially prepared as 1 mM stock in H2O and tested at a final concentration of 400 nM. Following the manufacture's protocol, a frozen aliquot of Tag-lite CXCR4 cells was thawed and immediately seeded onto 384-well plates in TLB. Immediately following the addition of cells, 400 nM peptide (final concentration) in TLB was added to the appropriate well. Then 15 nM (final concentration; EC80) of CXCR4R fluorescent probe was added to each well to initiate the HTRF assay. The plates were covered in aluminum foil and left at room temperature for 3 hours. Following the 3 hour incubation period, the plates were removed from the incubator and fluorescence measured using a Cytation 1 plate reader using a HTRF filter cube ([…]; BioTek; Winooski, Vt.). According manufacture's instruction data reduction was performed by calculating the ratio of 665 nm signal (TRF of 665 nm excitation by 620 emission; amount of CXCR4R fluorescent probe bound to terbium labeled CXCR receptor)/620 nm signal (620 excitation by 330 nm light source; normalization factor for amount of terbium labeled CXCR4 receptor in well)×10,000.
Compound,Percent Inhibition of CXCR4/CXCL12 Induced p-MEK (100 nM Test Article) [1],Percent Inhibition of CXCR4/CXCL12 Induced p-MEK (1 μM Test Article) [1],Percent Inhibition of CXCR4/CXCL12 Binding (400 nM peptide) [2]
CC(C)C[C@H](NC(=O)[C@H](CO)NC(=O)[C@H](CO)NC(=O)[C@H](CCCNC(=N)N)NC(=O)[C@@H](C)NC(=O)[C@H](CO)NC(=O)[C@H](Cc1c[nH]cn1)NC(=O)[C@H](Cc1c[nH]cn1)NC(=O)[C@H](Cc1ccc(O)cc1)NC(=O)[C@H](CCCNC(=N)N)NC(=O)[C@H](CCC(=O)O)NC(=O)[C@@H](C)N)C(=O)N[C@@H](CCCNC(=N)N)C(=O)N1CCC[C@H]1C(=O)N[C@@H](Cc1ccc(O)cc1)C(=O)N[C@H](C(=O)N[C@@H](CCCCN)C(=O)O)[C@@H](C)O [compound 35] (H-[dA]ERYHHS[dA]RSSLRPYTK-OH; N-terminus and C-terminus assumed),−7%,−6%,−13%
CC(C)C[C@H](NC(=O)[C@H](CO)NC(=O)[C@H](CO)NC(=O)[C@H](CCCNC(=N)N)NC(=O)[C@@H](C)NC(=O)[C@H](CO)NC(=O)[C@H](CC(N)=O)NC(=O)[C@H](Cc1c[nH]cn1)NC(=O)[C@H](Cc1ccc(O)cc1)NC(=O)[C@H](CCCNC(=N)N)NC(=O)[C@H](CCC(=O)O)NC(=O)[C@@H](N)CC(C)C)C(=O)N[C@@H](CCCNC(=N)N)C(=O)N1CCC[C@H]1C(=O)N[C@@H](Cc1ccc(O)cc1)C(=O)N[C@H](C(=O)N[C@@H](CCCCN)C(=O)O)[C@@H](C)O [compound 46] (H-LERYHNS[dA]RSSLRPYTK-OH; N-terminus and C-terminus assumed),,,−4%
CC(C)C[C@H](NC(=O)[C@H](CO)NC(=O)[C@H](CO)NC(=O)[C@H](CCCNC(=N)N)NC(=O)[C@@H](NC(=O)[C@H](CO)NC(=O)[C@H](Cc1c[nH]cn1)NC(=O)[C@H](CCC(N)=O)NC(=O)[C@H](Cc1ccc(O)cc1)NC(=O)[C@H](CCCNC(=N)N)NC(=O)[C@H](CCC(=O)O)NC(=O)[C@@H](N)CC(C)C)C(C)C)C(=O)N[C@@H](CCCNC(=N)N)C(=O)N1CCC[C@H]1C(=O)N[C@@H](Cc1ccc(O)cc1)C(=O)N[C@H](C(=O)N[C@@H](CCCCN)C(=O)O)[C@@H](C)O [compound 48] (H-LERYQHSVRSSLRPYTK-OH; N-terminus and C-terminus assumed),,,13%
CC(C)C[C@H](NC(=O)[C@H](CO)NC(=O)[C@H](CO)NC(=O)[C@H](CCCNC(=N)N)NC(=O)[C@@H](C)NC(=O)[C@H](CO)NC(=O)[C@H](Cc1c[nH]cn1)NC(=O)[C@H](CCC(N)=O)NC(=O)[C@H](Cc1ccc(O)cc1)NC(=O)[C@H](CCCNC(=N)N)NC(=O)[C@H](CCC(=O)O)NC(=O)[C@@H](N)CC(C)C)C(=O)N[C@@H](CCCNC(=N)N)C(=O)N1CCC[C@H]1C(=O)N[C@@H](Cc1ccc(O)cc1)C(=O)N[C@H](C(=O)N[C@@H](CCCCN)C(=O)O)[C@@H](C)O [compound 49] (H-LERYQHS[dA]RSSLRPYTK-OH; N-terminus and C-terminus assumed),,,20%
CC(C)C[C@H](NC(=O)[C@H](CO)NC(=O)[C@H](CO)NC(=O)[C@H](CCCNC(=N)N)NC(=O)[C@@H](NC(=O)[C@H](CO)NC(=O)[C@H](CCC(N)=O)NC(=O)[C@H](Cc1c[nH]cn1)NC(=O)[C@H](Cc1ccc(O)cc1)NC(=O)[C@H](CCCNC(=N)N)NC(=O)[C@H](CCC(=O)O)NC(=O)[C@@H](N)CC(C)C)C(C)C)C(=O)N[C@@H](CCCNC(=N)N)C(=O)N1CCC[C@H]1C(=O)N[C@@H](Cc1ccc(O)cc1)C(=O)N[C@H](C(=O)N[C@@H](CCCCN)C(=O)O)[C@@H](C)O [compound 51] (H-LERYHQSVRSSLRPYTK-OH; N-terminus and C-terminus assumed),,,−2%
CC(C)C[C@H](NC(=O)[C@H](CO)NC(=O)[C@H](CO)NC(=O)[C@H](CCC(=O)O)NC(=O)[C@@H](NC(=O)[C@H](CO)NC(=O)[C@H](Cc1c[nH]cn1)NC(=O)[C@H](Cc1c[nH]cn1)NC(=O)[C@H](Cc1ccc(O)cc1)NC(=O)[C@H](CCCNC(=N)N)NC(=O)[C@H](CCCNC(=N)N)NC(=O)[C@@H](N)CC(C)C)C(C)C)C(=O)N[C@@H](CCCNC(=N)N)C(=O)N1CCC[C@H]1C(=O)N[C@@H](Cc1ccc(O)cc1)C(=O)N[C@H](C(=O)N[C@@H](CCCCN)C(=O)O)[C@@H](C)O [compound 62] (H-LRRYHHSVESSLRPYTK-OH; N-terminus and C-terminus assumed),,,4%
CC(C)C[C@H](NC(=O)[C@H](CO)NC(=O)[C@H](CO)NC(=O)[C@H](CCCNC(=N)N)NC(=O)[C@@H](C)NC(=O)[C@H](CO)NC(=O)[C@H](Cc1c[nH]cn1)NC(=O)[C@H](Cc1c[nH]cn1)NC(=O)[C@H](Cc1ccc(O)cc1)NC(=O)[C@H](CCCNC(=N)N)NC(=O)[C@H](CCCNC(=N)N)NC(=O)[C@@H](N)CC(C)C)C(=O)N[C@@H](CCC(=O)O)C(=O)N1CCC[C@H]1C(=O)N[C@@H](Cc1ccc(O)cc1)C(=O)N[C@H](C(=O)N[C@@H](CCCCN)C(=O)O)[C@@H](C)O [compound 65] (H-LRRYHHS[dA]RSSLEPYTK-OH; N-terminus and C-terminus assumed),,,−5%
CC(C)C[C@H](NC(=O)[C@H](CO)NC(=O)[C@H](CO)NC(=O)[C@H](CC(=O)O)NC(=O)[C@@H](NC(=O)[C@H](CO)NC(=O)[C@H](Cc1c[nH]cn1)NC(=O)[C@H](Cc1c[nH]cn1)NC(=O)[C@H](Cc1ccc(O)cc1)NC(=O)[C@H](CCCNC(=N)N)NC(=O)[C@H](CCCNC(=N)N)NC(=O)[C@@H](N)CC(C)C)C(C)C)C(=O)N[C@@H](CCCNC(=N)N)C(=O)N1CCC[C@H]1C(=O)N[C@@H](Cc1ccc(O)cc1)C(=O)N[C@H](C(=O)N[C@@H](CCCCN)C(=O)O)[C@@H](C)O [compound 66] (H-LRRYHHSVDSSLRPYTK-OH; N-terminus and C-terminus assumed),−7%,13%,−5%
CC(C)C[C@H](NC(=O)[C@H](CO)NC(=O)[C@H](CO)NC(=O)[C@H](CC(=O)O)NC(=O)[C@@H](C)NC(=O)[C@H](CO)NC(=O)[C@H](Cc1c[nH]cn1)NC(=O)[C@H](Cc1c[nH]cn1)NC(=O)[C@H](Cc1ccc(O)cc1)NC(=O)[C@H](CCCNC(=N)N)NC(=O)[C@H](CCCNC(=N)N)NC(=O)[C@@H](N)CC(C)C)C(=O)N[C@@H](CCCNC(=N)N)C(=O)N1CCC[C@H]1C(=O)N[C@@H](Cc1ccc(O)cc1)C(=O)N[C@H](C(=O)N[C@@H](CCCCN)C(=O)O)[C@@H](C)O [compound 68] (H-LRRYHHS[dA]DSSLRPYTK-OH; N-terminus and C-terminus assumed),,,−10%
CC(C)C[C@H](NC(=O)[C@H](CO)NC(=O)[C@H](CO)NC(=O)[C@H](CCCNC(=N)N)NC(=O)[C@@H](C)NC(=O)[C@H](CO)NC(=O)[C@H](Cc1c[nH]cn1)NC(=O)[C@H](Cc1c[nH]cn1)NC(=O)[C@H](Cc1ccc(O)cc1)NC(=O)[C@H](CCCNC(=N)N)NC(=O)[C@H](CCCNC(=N)N)NC(=O)[C@@H](N)CC(C)C)C(=O)N[C@@H](CC(=O)O)C(=O)N1CCC[C@H]1C(=O)N[C@@H](Cc1ccc(O)cc1)C(=O)N[C@H](C(=O)N[C@@H](CCCCN)C(=O)O)[C@@H](C)O [compound 69] (H-LRRYHHS[dA]RSSLDPYTK-OH; N-terminus and C-terminus assumed),,,−5%
CC(C)C[C@H](NC(=O)[C@H](CO)NC(=O)[C@H](CO)NC(=O)[C@H](CCCNC(=N)N)NC(=O)[C@@H](C)NC(=O)[C@H](CO)NC(=O)[C@H](Cc1c[nH]cn1)NC(=O)[C@H](Cc1c[nH]cn1)NC(=O)[C@H](Cc1ccc(O)cc1)NC(=O)[C@H](CCCNC(=N)N)NC(=O)[C@H](CCC(=O)O)NC(=O)[C@@H](N)CC(C)C)C(=O)N[C@@H](CCCNC(=N)N)C(=O)N1CCC[C@H]1C(=O)N[C@@H](Cc1ccc(O)cc1)C(=O)N[C@@H](CO)C(=O)N[C@@H](CCCCN)C(=O)O [compound 78] (H-LERYHHS[dA]RSSLRPYSK-OH; N-terminus and C-terminus assumed),29%,46%,72%

# — patent US20220395553A1, “CXCR4 ANTAGONIST PEPTIDES” (COHBAR, INC., priority 2019, published 2022)
